Source: publication PMC12441834, “Highly Potent and Subtype-Selective Sperm-Specific Potassium Channel SLO3 Inhibitors Display High Tissue Exposure in the Murine Female Reproductive Tract” (ACS Pharmacology & Translational Science, 2025)

Experiments:
[1] = target: Muscarinic M2 (Homo sapiens, UniProt P08172); experiment: LeadProfilingScreen radioligand binding
[2] = target: Opiate δ1 (OP1, DOP) (Homo sapiens, UniProt P41143); experiment: LeadProfilingScreen radioligand binding
[3] = target: GABAB1A (Homo sapiens, UniProt Q9UBS5); experiment: LeadProfilingScreen radioligand binding
Sequence of GABAB1A (Q9UBS5 15-961 limits assumed): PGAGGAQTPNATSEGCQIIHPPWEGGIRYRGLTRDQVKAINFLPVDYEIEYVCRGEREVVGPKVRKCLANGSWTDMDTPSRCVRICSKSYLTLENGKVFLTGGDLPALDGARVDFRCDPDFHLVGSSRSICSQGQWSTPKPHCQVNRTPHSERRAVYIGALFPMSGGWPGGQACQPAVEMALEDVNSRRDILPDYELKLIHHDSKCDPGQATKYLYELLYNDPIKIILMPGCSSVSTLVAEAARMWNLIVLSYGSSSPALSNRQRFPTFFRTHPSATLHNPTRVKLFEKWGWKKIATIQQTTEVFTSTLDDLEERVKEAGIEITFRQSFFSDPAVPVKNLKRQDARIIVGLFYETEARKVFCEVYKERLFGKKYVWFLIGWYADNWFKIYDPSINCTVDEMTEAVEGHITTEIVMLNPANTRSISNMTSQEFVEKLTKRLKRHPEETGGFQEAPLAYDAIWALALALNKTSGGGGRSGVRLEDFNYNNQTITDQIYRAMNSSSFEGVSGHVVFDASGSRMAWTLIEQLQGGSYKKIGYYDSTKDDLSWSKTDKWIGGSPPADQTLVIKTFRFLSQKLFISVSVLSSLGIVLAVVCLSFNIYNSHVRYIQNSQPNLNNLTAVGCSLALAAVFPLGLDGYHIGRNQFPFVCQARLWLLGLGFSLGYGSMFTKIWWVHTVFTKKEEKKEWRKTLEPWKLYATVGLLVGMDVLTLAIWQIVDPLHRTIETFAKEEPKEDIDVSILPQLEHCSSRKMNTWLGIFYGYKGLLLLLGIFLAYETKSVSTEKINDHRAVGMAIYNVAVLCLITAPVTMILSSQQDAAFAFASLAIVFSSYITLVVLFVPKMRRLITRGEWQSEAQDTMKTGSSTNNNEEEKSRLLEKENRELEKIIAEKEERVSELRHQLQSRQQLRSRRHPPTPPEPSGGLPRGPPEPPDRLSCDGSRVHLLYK
Sequence of GABAB1A (O75899 42-941 partner): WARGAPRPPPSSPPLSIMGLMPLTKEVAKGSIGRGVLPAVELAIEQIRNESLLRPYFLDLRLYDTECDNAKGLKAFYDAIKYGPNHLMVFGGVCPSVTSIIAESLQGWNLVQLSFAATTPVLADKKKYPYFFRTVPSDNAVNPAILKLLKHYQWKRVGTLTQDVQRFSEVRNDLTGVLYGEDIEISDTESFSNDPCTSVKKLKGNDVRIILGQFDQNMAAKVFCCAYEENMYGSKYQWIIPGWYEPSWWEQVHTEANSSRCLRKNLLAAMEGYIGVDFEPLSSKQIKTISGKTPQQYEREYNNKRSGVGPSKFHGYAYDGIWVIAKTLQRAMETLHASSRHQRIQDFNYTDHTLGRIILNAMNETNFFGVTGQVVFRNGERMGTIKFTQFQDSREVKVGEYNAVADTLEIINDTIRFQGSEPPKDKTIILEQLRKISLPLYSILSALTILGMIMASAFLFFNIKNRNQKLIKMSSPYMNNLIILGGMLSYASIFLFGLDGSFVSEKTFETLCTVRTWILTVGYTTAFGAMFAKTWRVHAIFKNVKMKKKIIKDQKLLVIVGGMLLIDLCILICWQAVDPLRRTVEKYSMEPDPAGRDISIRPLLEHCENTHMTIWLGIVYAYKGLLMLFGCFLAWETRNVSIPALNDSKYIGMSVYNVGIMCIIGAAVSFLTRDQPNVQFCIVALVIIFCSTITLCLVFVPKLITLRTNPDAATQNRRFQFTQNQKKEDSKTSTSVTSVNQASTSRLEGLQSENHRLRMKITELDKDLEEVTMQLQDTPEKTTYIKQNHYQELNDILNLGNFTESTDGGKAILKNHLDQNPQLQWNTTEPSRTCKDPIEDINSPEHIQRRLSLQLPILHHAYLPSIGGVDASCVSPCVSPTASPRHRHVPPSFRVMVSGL

[4] = target: Histamine H2 (Homo sapiens, UniProt P25021); experiment: LeadProfilingScreen radioligand binding
Sequence of Histamine H2 (P25021 whole entry): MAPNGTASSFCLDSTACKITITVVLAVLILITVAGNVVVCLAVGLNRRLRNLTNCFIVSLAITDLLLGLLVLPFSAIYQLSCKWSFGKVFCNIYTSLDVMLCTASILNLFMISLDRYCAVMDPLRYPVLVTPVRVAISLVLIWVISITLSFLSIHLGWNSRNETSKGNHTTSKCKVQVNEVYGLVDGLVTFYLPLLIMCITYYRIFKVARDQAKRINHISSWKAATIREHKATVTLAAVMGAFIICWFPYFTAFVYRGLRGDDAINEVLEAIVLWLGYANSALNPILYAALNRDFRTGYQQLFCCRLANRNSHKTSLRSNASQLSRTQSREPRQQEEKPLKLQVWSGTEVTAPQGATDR

[5] = system: Purinergic P2X; experiment: LeadProfilingScreen radioligand binding; design: species or system rat
[6] = target: CYP1A2 (Homo sapiens, UniProt P05177); experiment: CYP450 inhibition; assay type: in vitro ADME; settings: read-out: CYP450 Inhibition, 1A2
Sequence of CYP1A2 (P05177 whole entry, species assumed): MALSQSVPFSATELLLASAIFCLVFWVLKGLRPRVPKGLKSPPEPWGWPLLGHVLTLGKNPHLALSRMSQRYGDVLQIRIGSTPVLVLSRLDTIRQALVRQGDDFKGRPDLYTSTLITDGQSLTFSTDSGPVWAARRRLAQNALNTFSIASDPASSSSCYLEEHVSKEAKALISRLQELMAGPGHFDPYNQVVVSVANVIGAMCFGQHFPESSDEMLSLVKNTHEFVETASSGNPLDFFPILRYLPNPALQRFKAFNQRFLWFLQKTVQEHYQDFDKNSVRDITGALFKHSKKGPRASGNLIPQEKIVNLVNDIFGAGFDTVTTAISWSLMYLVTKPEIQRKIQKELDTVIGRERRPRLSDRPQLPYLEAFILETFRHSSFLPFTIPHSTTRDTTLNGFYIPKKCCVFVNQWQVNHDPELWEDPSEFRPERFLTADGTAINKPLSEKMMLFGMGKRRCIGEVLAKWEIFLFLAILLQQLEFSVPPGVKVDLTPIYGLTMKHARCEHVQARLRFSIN

[7] = system: Thyroid Hormone; experiment: LeadProfilingScreen radioligand binding; design: species or system rat
[8] = target: T1, mouse SLO3 (Mus musculus, UniProt O54982); experiment: Whole-cell recording, mouse SLO3-γ2 expressed in HEK293 cells; assay type: cell-based; settings: for IC50: HEK293 cells transfected with murine SLO3-γ2, read-out: mSLO3 IC50; for Hill coefficient: mouse SLO3-γ2 in HEK293 cells
T1 construct: expressed in transfected cells; host or cells: HEK293 (transient, Lipofectamine 3000, with pmaxGFP as marker)
T1 sequence (O54982 1-1121): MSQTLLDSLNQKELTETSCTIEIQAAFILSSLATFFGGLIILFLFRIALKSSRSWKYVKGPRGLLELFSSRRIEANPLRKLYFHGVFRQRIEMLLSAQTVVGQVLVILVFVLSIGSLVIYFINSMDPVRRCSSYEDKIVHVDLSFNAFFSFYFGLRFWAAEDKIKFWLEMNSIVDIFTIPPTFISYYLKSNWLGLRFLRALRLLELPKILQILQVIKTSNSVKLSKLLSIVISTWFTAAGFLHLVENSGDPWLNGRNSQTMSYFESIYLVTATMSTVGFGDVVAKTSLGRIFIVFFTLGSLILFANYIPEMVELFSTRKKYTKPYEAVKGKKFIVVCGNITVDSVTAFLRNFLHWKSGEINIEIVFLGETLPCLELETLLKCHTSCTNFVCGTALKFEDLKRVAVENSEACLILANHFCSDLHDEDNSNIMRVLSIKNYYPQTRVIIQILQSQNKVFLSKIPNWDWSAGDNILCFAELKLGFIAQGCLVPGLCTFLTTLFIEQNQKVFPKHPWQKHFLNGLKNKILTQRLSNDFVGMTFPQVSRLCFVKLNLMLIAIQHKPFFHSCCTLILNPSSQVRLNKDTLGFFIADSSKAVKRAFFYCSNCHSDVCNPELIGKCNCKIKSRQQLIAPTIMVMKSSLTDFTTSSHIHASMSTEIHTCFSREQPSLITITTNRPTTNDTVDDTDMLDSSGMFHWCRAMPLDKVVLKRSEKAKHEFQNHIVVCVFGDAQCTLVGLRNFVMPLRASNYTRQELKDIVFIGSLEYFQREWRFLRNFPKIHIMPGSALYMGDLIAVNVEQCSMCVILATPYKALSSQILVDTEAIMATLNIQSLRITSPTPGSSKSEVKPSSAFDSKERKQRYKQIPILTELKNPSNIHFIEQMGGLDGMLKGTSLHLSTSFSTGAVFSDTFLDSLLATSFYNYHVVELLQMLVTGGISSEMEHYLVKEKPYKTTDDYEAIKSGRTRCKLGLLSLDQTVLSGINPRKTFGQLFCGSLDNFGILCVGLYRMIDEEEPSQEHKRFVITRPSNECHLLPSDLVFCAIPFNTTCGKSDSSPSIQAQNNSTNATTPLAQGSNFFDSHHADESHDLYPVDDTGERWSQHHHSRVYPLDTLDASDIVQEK
T1 sequence (Q5M8M9 24-314 partner): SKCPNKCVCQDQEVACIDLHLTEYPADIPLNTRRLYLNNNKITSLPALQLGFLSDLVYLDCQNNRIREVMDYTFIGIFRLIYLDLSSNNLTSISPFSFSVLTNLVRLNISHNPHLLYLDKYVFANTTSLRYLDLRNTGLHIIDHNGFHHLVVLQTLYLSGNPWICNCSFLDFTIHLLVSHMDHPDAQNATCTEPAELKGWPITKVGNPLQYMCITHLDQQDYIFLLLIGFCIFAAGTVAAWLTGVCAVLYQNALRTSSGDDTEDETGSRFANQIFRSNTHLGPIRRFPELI
Description: HEK293 cells were plated at a density of ∼400,000 cells per 40 mm dish the day before transfection. Lipofectamine 3000 transfection reagent (catalog #L3000015; Thermo Fisher Scientific) was used to transfect HEK293 cells following manufacturer’s instructions. Per 40 mm dish, 2.25 μg of mouse SLO3 and its auxiliary subunit γ2 cDNAs (1:1) were added to cell layers that were 70–90% confluent. As a marker for transfection, cells were cotransfected with pmaxGFP, a CMV plasmid expressing green fluorescent protein (Amaxa Biosystems) at 0.2 μg per dish. After transfection, the cells were incubated at 37 °C with 5% CO2 for 2–4 d until recording.
Voltage-clamp recordings were performed using an Axopatch 200B amplifier (Molecular Devices). Recordings were filtered at 5 kHz with the internal filter of the amplifier and digitized at 50 kHz using a Digidata 1550B digitizer (Molecular Devices). Recording pipettes were pulled from borosilicate glass with tip resistances of 3–8 MΩ after filling with pipette solution containing (in mM): 140 KMES, 1 EGTA, 10 HEPES, pH 7.4 with KOH. Bath solutions contained (in mM): 135 NaMES, 5 KMES, 2 MgCl2, and 10 HEPES, pH 7.4 with NaOH. Experiments were performed at room temperature (∼22 °C). Whole-cell currents were evoked from a holding potential of −60 mV in steps from −80 to +100 mV in 10 mV increments. Test compounds were prepared daily from a 10 mM stock solution (in DMSO).
Data were analyzed with a pClamp 10.6 (Molecular Devices). VU6047606 and VU6032735 inhibition dose–response relationships were fit by the Hill equation in OriginPro 7.5 (OriginLab Corporation): R=1/1+(C/IC50)^n+Ioff , in which R is fractional unblock, C is compound concentration, IC50 is the half inhibition concentration, n is the Hill coefficient, and I off is an offset item for leak current. Error bars in the figures represent the SDs. Each data point is averaged from at least 5 measurements. Curve-fitting results are reported as the fitted values with standard error, which was estimated by OriginPro according to the Error Propagation formula.

[9] = target: Histamine H3 (Homo sapiens, UniProt Q9Y5N1); experiment: LeadProfilingScreen radioligand binding
[10] = target: Adrenergic α1D (Homo sapiens, UniProt P25100); experiment: LeadProfilingScreen radioligand binding
Sequence of Adrenergic α1D (P25100 whole entry): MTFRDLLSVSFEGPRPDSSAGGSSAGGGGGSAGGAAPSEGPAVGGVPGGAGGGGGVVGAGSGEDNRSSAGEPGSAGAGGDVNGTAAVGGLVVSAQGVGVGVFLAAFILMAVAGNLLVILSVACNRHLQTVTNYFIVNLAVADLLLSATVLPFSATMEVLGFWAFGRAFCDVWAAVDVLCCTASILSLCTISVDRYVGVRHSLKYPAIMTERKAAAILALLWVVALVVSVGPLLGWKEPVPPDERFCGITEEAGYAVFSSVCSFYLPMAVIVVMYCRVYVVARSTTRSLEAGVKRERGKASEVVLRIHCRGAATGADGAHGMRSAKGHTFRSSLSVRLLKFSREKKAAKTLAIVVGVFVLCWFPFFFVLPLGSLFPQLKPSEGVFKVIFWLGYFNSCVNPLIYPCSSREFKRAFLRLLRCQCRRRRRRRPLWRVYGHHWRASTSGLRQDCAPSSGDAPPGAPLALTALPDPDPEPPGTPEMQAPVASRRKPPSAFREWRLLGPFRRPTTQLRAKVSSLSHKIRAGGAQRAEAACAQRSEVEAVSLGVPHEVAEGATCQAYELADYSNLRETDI

[11] = target: Adrenergic α2A (Homo sapiens, UniProt P08913); experiment: LeadProfilingScreen radioligand binding
Sequence of Adrenergic α2A (P08913 whole entry): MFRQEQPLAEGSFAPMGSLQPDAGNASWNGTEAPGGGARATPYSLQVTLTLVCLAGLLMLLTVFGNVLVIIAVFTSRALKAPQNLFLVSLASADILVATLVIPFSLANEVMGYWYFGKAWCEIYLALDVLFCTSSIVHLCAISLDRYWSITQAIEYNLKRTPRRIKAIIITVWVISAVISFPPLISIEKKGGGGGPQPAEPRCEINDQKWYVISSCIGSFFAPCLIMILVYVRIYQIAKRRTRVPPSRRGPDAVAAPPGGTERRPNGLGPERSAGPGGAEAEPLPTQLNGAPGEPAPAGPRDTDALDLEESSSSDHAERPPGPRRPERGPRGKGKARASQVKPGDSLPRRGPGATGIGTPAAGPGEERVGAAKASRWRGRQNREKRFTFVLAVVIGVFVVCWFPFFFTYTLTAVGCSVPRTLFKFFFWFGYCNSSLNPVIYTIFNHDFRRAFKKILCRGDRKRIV

Sequence of Muscarinic M2 (P08172 whole entry): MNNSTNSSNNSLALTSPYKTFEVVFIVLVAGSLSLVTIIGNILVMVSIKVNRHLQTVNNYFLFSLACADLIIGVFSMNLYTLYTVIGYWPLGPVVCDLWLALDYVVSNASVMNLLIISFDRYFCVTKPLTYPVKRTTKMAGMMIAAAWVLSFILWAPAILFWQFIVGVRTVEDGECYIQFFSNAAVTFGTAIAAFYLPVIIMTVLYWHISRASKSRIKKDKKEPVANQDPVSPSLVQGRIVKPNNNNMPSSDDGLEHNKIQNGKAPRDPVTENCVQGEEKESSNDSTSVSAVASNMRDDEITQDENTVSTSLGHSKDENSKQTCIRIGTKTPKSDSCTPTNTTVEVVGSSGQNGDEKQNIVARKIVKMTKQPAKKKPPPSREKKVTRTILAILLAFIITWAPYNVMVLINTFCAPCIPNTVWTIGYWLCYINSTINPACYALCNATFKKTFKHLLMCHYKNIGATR
Sequence of Opiate δ1 (OP1, DOP) (P41143 whole entry): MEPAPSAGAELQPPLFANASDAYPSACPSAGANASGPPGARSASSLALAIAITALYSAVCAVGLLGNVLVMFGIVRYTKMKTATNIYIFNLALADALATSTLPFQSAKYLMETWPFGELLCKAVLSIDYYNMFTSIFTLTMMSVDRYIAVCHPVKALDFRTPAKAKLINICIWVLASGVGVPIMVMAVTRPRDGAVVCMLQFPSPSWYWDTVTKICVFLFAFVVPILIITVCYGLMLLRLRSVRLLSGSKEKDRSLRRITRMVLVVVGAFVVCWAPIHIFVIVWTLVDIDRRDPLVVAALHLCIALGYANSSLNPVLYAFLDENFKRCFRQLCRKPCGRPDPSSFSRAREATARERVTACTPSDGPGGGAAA

Compound | inhibition at 10 µM [1] | inhibition at 10 µM [2] | inhibition at 10 µM [3] | inhibition at 10 µM [4] | % inhibition at 10 μM [5] | IC50 [6] | % inhibition at 10 μM [7] | IC50 [8] | Hill coefficient [8] | fold less potent on murine SLO3 than on human SLO3 ([8]; mouse versus human SLO3) | inhibition at 10 µM [9] | inhibition at 10 µM [10] | inhibition at 10 µM [11] | fold more potent than VU6047606 on mouse SLO3 ([8]; HEK293 cells, mSLO3-γ2)
Cc1cc(Cl)cc2sc(O[C@H]3CCN(C(=O)CCCS(=O)(=O)c4cccc(Br)c4)C[C@H]3F)nc12 [VU6047606] | -6% | 12% | 12% | -24% | 1% | > 30 µM | 12% | 1.15 µM | 0.83 ± 0.19 | ~7 fold | 11% | 13% | -4% | –
O=C(c1ccc(OCc2ccc(OC(F)(F)F)cc2)cc1)N1CCN(c2ccc(C(F)(F)F)cn2)CC1 [VU6032735] | -10% | 7% | 31% | 6% | 1% | > 30 µM | 4% | 0.73 µM | 1.03 ± 0.02 | – | -16% | 2% | -3% | ~1.6 fold
